As a reminder, the IC50 is the concentration needed to halve the response being measured. Low values mean higher potency, high ones lower potency.

T1 sequence (P00956 2-938): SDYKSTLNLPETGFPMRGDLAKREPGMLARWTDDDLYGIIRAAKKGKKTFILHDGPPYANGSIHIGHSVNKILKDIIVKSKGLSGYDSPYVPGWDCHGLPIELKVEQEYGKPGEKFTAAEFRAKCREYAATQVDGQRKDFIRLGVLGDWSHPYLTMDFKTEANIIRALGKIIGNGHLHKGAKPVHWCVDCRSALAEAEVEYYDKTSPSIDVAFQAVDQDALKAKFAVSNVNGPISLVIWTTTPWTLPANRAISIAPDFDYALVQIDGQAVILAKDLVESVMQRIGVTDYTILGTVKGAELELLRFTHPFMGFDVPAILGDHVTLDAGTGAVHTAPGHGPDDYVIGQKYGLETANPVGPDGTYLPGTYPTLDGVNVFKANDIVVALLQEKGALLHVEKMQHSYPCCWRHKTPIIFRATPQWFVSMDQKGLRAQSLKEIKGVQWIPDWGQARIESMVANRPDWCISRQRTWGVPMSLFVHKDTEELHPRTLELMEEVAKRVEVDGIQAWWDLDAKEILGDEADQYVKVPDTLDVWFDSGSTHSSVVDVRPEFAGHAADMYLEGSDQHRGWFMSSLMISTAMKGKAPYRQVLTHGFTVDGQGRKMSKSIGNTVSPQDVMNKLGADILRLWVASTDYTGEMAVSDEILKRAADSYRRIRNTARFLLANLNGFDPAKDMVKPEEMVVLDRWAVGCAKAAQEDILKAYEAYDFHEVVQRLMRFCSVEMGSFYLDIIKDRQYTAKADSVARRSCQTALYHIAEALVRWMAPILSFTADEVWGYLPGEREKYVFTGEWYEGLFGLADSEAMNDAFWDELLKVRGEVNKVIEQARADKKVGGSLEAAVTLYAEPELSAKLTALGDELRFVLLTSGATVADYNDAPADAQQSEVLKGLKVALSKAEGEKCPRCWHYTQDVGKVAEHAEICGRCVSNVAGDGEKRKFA

One experiment has as its target T1, E. coli IleRS (Escherichia coli, UniProt P00956).
T1 construct: gene ileS; purified recombinant E. coli IleRS
As to the kind of experiment: radiolabel aminoacyl transfer assay ([…]-Ile to tRNA, TCA precipitation). Format: biochemical.
Details: not given
On to `CC[C@H](C)[C@H](N)C(=O)NS(=O)(=O)OC[C@H]1O[C@@H](n2cnc3c(OC)ncnc32)[C@H](O)[C@@H]1O` [6f, 5′-O-(N-L-isoleucyl)-sulfamoyl-6-O-methyl-purine riboside], for which the IC50 worked out at 4.9 ± 1.1 nM.

For `CCCCCCCCNc1ncnc2c1ncn2[C@@H]1O[C@H](COS(=O)(=O)NC(=O)[C@@H](N)[C@@H](C)CC)[C@@H](O)[C@H]1O` [6b, 5′-O-(N-L-isoleucyl)-sulfamoyl-N^6-octyl-adenosine], the IC50 came out at 42.8 ± 1 nM.

As to `CC[C@H](C)[C@H](N)C(=O)NS(=O)(=O)OC[C@H]1O[C@@H](n2cnc3c(Nc4ccccc4)ncnc32)[C@H](O)[C@@H]1O` [6e, 5′-O-(N-L-isoleucyl)-sulfamoyl-N^6-phenyl-adenosine], the half-maximal inhibitory concentration (IC50) came out at 10.5 ± 1 nM.

`CC[C@H](C)[C@H](N)C(=O)NS(=O)(=O)OC[C@H]1O[C@@H](n2cnc3c(NC)ncnc32)[C@H](O)[C@@H]1O` [6a, 5′-O-(N-L-isoleucyl)-sulfamoyl-N^6-methyl-adenosine]: 13.9 ± 1 nM corresponded to half-maximal inhibition (IC50). This IC50 and that of the compound before are within 1.5-fold of each other.

The next experiment has as its target T1, E. coli IleRS. The experiment is described as above. Format: biochemical. The conditions noted are these: 10 nM IleRS, 50 µM 14C-isoleucine, 2 mg/mL tRNA, 500 µM ATP, 10 mM MgCl2, pH 7.5, 37 °C, 10 min preincubation; dose-response curve not determined.
Take `CCCCCCCCCCCCCCCCCCNc1ncnc2c1ncn2[C@@H]1O[C@H](COS(=O)(=O)NC(=O)[C@@H](N)[C@@H](C)CC)[C@@H](O)[C@H]1O` [6d, 5′-O-(N-L-isoleucyl)-sulfamoyl-N^6-octadecyl-adenosine]: the relative activity result is “the octadecyl compound 6d was found to be active only in the micromolar range”.

With `CCCCCCCCCCCCNc1ncnc2c1ncn2[C@@H]1O[C@H](COS(=O)(=O)NC(=O)[C@@H](N)[C@@H](C)CC)[C@@H](O)[C@H]1O` [6c, 5′-O-(N-L-isoleucyl)-sulfamoyl-N^6-dodecyl-adenosine], the relative activity result is given as “the dodecyl derivative 6c was active in submicromolar range”.

These data come from article PMC6963541, “Synthesis and Biological Evaluation of Lipophilic Nucleoside Analogues as Inhibitors of Aminoacyl-tRNA Synthetases” (Antibiotics, 2019).
